Results: publication PMC9440176, “Novel benzylidene benzofuranone analogues as potential anticancer agents: design, synthesis and in vitro evaluation based on CDK2 inhibition assays” (3 Biotech, 2022)

Tests used:
HCT 116 = assay: MTT cytotoxicity assay on HCT 116; assay type: cell-based, Human; conditions: 24 h, read-out: Inhibition of cell proliferation, IC50, HCT 116
Experimental: The monolayer cell culture was trypsinized and the cell count was adjusted to 5.0 × 10^5 cells/ml using respective media containing 10% FBS. To each well of the 96-well microtiter plate, 100 µL of the diluted cell suspension (50,000cells/well) was added. After 24 h, when a partial monolayer was formed, the supernatant was flicked off, the monolayer was then washed once again with the medium and 100 µL of different test concentrations of test drugs were added on to the partial monolayer in microtiter plates. The plates were then incubated at 37 °C for 24 h in 5% CO2 atmosphere. After incubation, the test solutions in the wells were discarded and 100 µL of MTT (5 mg/10 ml of MTT in PBS) was added to each well. The plates were then incubated for 4 h at 37 °C in 5% CO2 atmosphere. The supernatant was then removed and 100 µL of DMSO was added and the plates were gently shaken to solubilize the formed formazan. The absorbance was measured using a microtiter plate reader at a wavelength of 590 nm. The percentage growth inhibition was thus calculated using the following formula and the concentration of the test drug required to inhibit the cell growth by 50% (IC50) values is generated from the dose–response curves for each one of the cell lines (Meerloo et al. [2011]).
The test compounds were screened for their in vitro cytotoxicity by MTT assay against two cancer cell lines, namely MCF-7, HCT-116 and normal epithelial kidney cells (Vero). Doxorubicin was used as a reference standard.

CDK2/Cyclin A = CDK2/Cyclin A (Homo sapiens, UniProt P24941); assay: CDK2/cyclin A inhibitory assay, Z'-LYTE FRET kinase assay; assay type: biochemical; conditions: concentration of 100 micro molar; 1000 ng/ml kinase, 1000 µM ATP
From the text: Z’-LYTE® technology involves homogeneous assay design based on FRET and is a universal platform for both screening as well as profiling protein kinases. The assay uses a peptide substrate labeled with two different fluorophores, coumarin donor and fluorescein acceptor on each end. These two fluorophores make up a FRET pair, which allows the transfer of energy when both are present on the same molecule. The initial kinase reaction transfers the ϒ-phosphate of ATP to a tyrosine or serine/threonine residue on the substrate. In a secondary reaction, referred to as the development reaction, a site-specific protease recognizes and cleaves only non-phosphorylated peptide, while phosphorylated substrate remains uncleaved. […] Upon excitation of Coumarin at 400 nm, the FRET signal is measured as a ratio between the Coumarin donor emission at 445–460 nm and the fluorescein acceptor emission at 520–535 nm(Lebakken et al. [2007]).
Initial ten-fold and two-fold dilutions of Kinase and ATP concentrations were used to choose the optimal Kinase and ATP concentration based on the % Phosphorylation.
The assay was carried out according to the kit instructions (384 well format). Briefly, 5X kinase buffer [250 mM HEPES (pH 7.5), 50 mM MgCl2, 5 mM EGTA, 0.05% BRIJ-35] was diluted to 1X using distilled water. The phosphor peptide positive control (Z’-LYTE® Tyr 4 phospho-peptide) and the non-phosphorylated negative control (Z’-LYTE® Tyr 4 peptide) were then diluted to 1:500 with 1× kinase buffer to 2 μM. […] Working development solution was then made by diluting 12 μL of the provided stock solution with 388 μL of the provided development buffer. Aliquots (20 μL) of each peptide mixture were then added to the wells of a Corning 3914 solid white microplate in replicates of 8. The development reaction was initiated by the addition of 10 μL of working development-solution to all the wells. Further, the plates were allowed to incubate at room temperature for 60 min. Reactions were then stopped by the addition of 10 μL of stop solution (Jia et al. [2008]).
Reactions were quantitated using a Tecan Robotic Microplate Reader. Reader control, blank subtraction, ratio metric calculations and finally graph plotting were carried out using Gen5™ Data Analysis Software.
The CDK2/Cyclin A assay was carried out as per the manufacturer’s instruction using suitable controls and standard.
The inhibitory assay was carried out using the stock of 10 mM in DMSO. Samples were further serially diluted to obtain concentrations of 100 μM. The concentrations were chosen based on the IC50 values obtained in the MTT assay. A total of 23 analogues were selected for the assay based on their antiproliferative activity. Further, selected compounds were screened and tested against the target CDK2/Cyclin A, and their % phosphorylation and % inhibition were recorded.

[1] = ABTS.+ radical scavenging assay
Experimental: The assay was performed in a 96-well plate by serial dilution method. A 2 mM ABTS^.+ working solution was prepared in a phosphate buffer (Zheleva-Dimitrova et al [2010]).To this, 200 μL of aqueous potassium per sulfate (70 mM) solution was added and the solution was incubated for 24 h in the dark at room temperature to develop a blue-green color. To 30 μL of ABTS^.+ working solution, 50 μL of different concentrations (3.9–1000 μM) of the test sample solution and 170 μL of phosphate buffer (pH-7.4) were added in a well. The plate was then incubated in the dark at room temperature for 10 min. Then absorbance was measured at 690 nm using Elisa reader. Quercetin and ascorbic acid were used as standards. The percentage scavenging of ABTS^.+ was calculated using the formula, (Control Absorbance–Test Absorbance)*100/(Control Absorbance) and the anti-oxidant activity was expressed in terms of IC50 value.

## COc1ccc(/C=C2\Oc3c(c(OC)cc(OC)c3C3=CCN(C(C)C)CC3)C2=O)cc1OC [NISOA4]
HCT 116
  IC50: 21.2 µM
CDK2/Cyclin A
  % inhibition on CDK2/cyclin A: 42.787%
[1]
  IC50: 127 ± 12.5 µM
